Like-named read-outs stand apart in the source and are kept apart here.

Here are results for 18 compounds from patent publication US10975068B2, “6-aminopyridin-3-yl thiazoles as modulators of RORγT” (Janssen Pharmaceutica NV, priority 2016, dated 2021).

The target of test [1] is human RORγt ligand binding domain (RORγt LBD) (Homo sapiens (Human), UniProt P51449). Briefly: RORγt ThermoFluor® assay (thermal shift binding). The conditions noted are these: read-out: ThermoFluor® Assay, Kd. The method in brief: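 His-tagged human RORγt LBD (0.065 mg/mL) with 60 μM 1,8-ANS in 100 mM Hepes pH 7.0, 10 mM NaCl, 2.5 mM GSH, 0.002% Tween-20 was heated at 1 °C/min.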
Sequence of human RORγt ligand binding domain (RORγt LBD) (P51449 other isoform, or with tags, fused parts or gaps): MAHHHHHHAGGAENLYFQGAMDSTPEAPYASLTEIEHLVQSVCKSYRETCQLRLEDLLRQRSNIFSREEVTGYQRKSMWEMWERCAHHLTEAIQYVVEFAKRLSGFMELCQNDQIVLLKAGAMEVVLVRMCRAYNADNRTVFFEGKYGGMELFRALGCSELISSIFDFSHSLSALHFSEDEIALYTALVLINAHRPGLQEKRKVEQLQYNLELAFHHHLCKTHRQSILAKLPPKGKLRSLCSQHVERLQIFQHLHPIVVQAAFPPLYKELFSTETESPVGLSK

A further test has as its target full-length human RORγt (Homo sapiens (Human), UniProt P51449). Briefly: RORγt (full-length human) reporter assay, Conditions B or C. Format: cell-based. The conditions noted are these: for inhibition at 6 µM: read-out: RORγt (FL) Reporter Assay B or C, % inhibition @ 6 μM, Conditions B or C; for inhibition at 3 µM: at 3 μM compound concentration; for inhibition at 3 µM / inhibition at 1 µM: read-out: RORγt (FL) Reporter Assay B or C, % inhibition; for RORγt (FL) Reporter Assay B or C, % inhibition (value marked *): marked *: footnote not given; for inhibition at 1 µM: at 1 μM compound concentration. An outline of the steps: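 HEK293T cells transiently co-transfected with GAL4-DBD–full-length human RORγt (nt 142-1635, NM_001001523.1) plus GAL4-firefly and CMV-Renilla luciferase reporters; compounds added 4-6 h post-transfection for 16-20 h in 1.3% FBS, 0.1% DMSO. Firefly signal normalized to DMSO and saturating reference compound, then to Renilla; IC50 from concentration plots.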
A general note: In a reporter assay the amount or activity of a reporter protein is the signal.

The mark [2] stands for this setting: Conditions B or C, read-out: RORγt (FL) Reporter Assay B or C, IC50.
[3] abbreviates: read-out: RORγt (FL) Reporter Assay B or C, IC50.

Sequence of full-length human RORγt (P51449 other isoform, or with tags, fused parts or gaps): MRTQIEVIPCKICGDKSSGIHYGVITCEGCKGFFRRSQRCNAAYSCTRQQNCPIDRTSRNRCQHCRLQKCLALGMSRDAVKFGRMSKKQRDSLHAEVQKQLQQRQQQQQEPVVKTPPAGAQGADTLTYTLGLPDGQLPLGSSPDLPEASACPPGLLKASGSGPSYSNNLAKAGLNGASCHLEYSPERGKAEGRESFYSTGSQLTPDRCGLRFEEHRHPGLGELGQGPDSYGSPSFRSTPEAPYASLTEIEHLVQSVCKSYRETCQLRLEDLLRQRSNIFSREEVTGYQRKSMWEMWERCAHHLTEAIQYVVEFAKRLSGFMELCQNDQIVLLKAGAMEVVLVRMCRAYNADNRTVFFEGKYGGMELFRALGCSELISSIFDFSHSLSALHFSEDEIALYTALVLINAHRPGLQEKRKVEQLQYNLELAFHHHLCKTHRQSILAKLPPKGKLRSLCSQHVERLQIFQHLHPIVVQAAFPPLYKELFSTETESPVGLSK

Turning to `C[C@H]1CCCCN1C(=O)c1nc(C(=O)NCC(C)(C)O)sc1-c1cnc(N[C@@H]2CCCCC2(F)F)cc1C(F)(F)F` (relative stereo) [Example 31, 5-(6-(((R*)-2,2-Difluorocyclohexyl)amino)-4-(trifluoromethyl)pyridin-3-yl)-N-(2-hydroxy-2-methylpropyl)-4-((S)-2-methylpiperidine-1-carbonyl)thiazole-2-carboxamide], in test [1], the dissociation constant (Kd) (usually the concentration at which binding is half-saturated) stood at 0.15 nM. Moreover, the IC50 – broadly, the concentration at which inhibition is half-maximal – at full-length human RORγt (setting [2]) turned out to be 0.0045 µM. Further, the inhibition – broadly, the drop in the measured response relative to a control, in per cent – at 6 µM at full-length human RORγt was 111%.

For the compound `C[C@H]1CCCN1C(=O)c1nc(C(=O)N2C[C@@H]3C[C@H]2CO3)sc1-c1cnc(NC(C)(C)C)cc1C(F)(F)F` [Example 360, [5-[6-(tert-Butylamino)-4-(trifluoromethyl)-3-pyridyl]-2-[(1S,4S)-2-oxa-5-azabicyclo[2.2.1]heptane-5-carbonyl]thiazol-4-yl]-[(2S)-2-methylpyrrolidin-1-yl]methanone], in test [1], the Kd amounted to 10 nM. Besides, the inhibition at 3 µM at full-length human RORγt is 106%. Moreover, at full-length human RORγt (setting [3]), the IC50 is 0.082 µM.

Regarding `C[C@H](Nc1cc(C(F)F)c(-c2sc(C(=O)N[C@@H]3CC[C@@H](O)C3)nc2C(=O)N2CCC[C@@H]2C)cn1)C(F)(F)F` [Example 289, 5-(4-(Difluoromethyl)-6-(((S)-1,1,1-trifluoropropan-2-yl)amino)pyridin-3-yl)-N-((1R,3R)-3-hydroxycyclopentyl)-4-((S)-2-methylpyrrolidine-1-carbonyl)thiazole-2-carboxamide], the Kd in test [1] was 3.8 nM. Further, the inhibition at 3 µM on full-length human RORγt amounted to 99%. Also, the half-inhibitory concentration (IC50) at full-length human RORγt (setting [3]) came out at 0.069 µM.

In the case of `CC[C@@H](CO)NC(=O)c1nc(C(=O)N2CCC[C@@H]2C)c(-c2cnc(N[C@@H](C)C(F)(F)F)cc2C(F)F)s1` [Example 407, 5-[4-(Difluoromethyl)-6-[[(1S)-2,2,2-trifluoro-1-methyl-ethyl]amino]-3-pyridyl]-N-[(1S)-1-(hydroxymethyl)propyl]-4-[(2S)-2-methylpyrrolidine-1-carbonyl]thiazole-2-carboxamide], in test [1], the equilibrium dissociation constant (Kd) came to 15 nM. Moreover, the inhibition at 3 µM at full-length human RORγt stood at 100%. At full-length human RORγt (setting [3]), the half-maximal inhibitory concentration (IC50) came to 0.12 µM.

In the case of `CC[C@H](Nc1cc(C(F)(F)F)c(-c2sc(C(=O)N[C@H]3COC[C@@H]3O)nc2C(=O)N2C3CCC2CC3)cn1)C(F)(F)F` [Example 156], the equilibrium dissociation constant (Kd) in test [1] worked out at 1 nM. Also, the “RORγt (FL) Reporter Assay B or C, % inhibition (value marked *)” value (“RORγt … % inhibition (value marked *)” for short) on full-length human RORγt (Conditions B or C) was 102* %. Further, 0.044 µM corresponded to half-maximal inhibition against full-length human RORγt (RORγt (FL) Reporter Assay B or C, IC50 (μM), Conditions B or C) (IC50).

Take `C[C@H]1CCCN1C(=O)c1nc(C(=O)NC2(C)COC2)sc1-c1cnc(NC(C)(C)C)cc1C(F)(F)F` [Example 253, 5-[6-(tert-Butylamino)-4-(trifluoromethyl)-3-pyridyl]-N-(3-methyloxetan-3-yl)-4-[(2S)-2-methylpyrrolidine-1-carbonyl]thiazole-2-carboxamide]: the Kd in test [1] turned out to be 1.9 nM. Besides, the inhibition at 3 µM on full-length human RORγt is 108%. At full-length human RORγt (setting [3]), the concentration for half-maximal inhibition (IC50) worked out at 0.0077 µM.

With `C[C@H]1CCCN1C(=O)c1nc(C(=O)NCC(C)(C)O)sc1-c1cnc(NC2CCCC2)cc1C(F)F` [Example 42, (S)-5-(6-(Cyclopentylamino)-4-(difluoromethyl)pyridin-3-yl)-N-(2-hydroxy-2-methylpropyl)-4-(2-methylpyrrolidine-1-carbonyl)thiazole-2-carboxamide], the dissociation constant Kd in test [1] stood at 9.3 nM. Besides, the IC50 on full-length human RORγt (setting [2]) was determined as 0.042 µM. In addition, the inhibition at 6 µM at full-length human RORγt worked out at 111%.

For the compound `C[C@H]1CCCN1C(=O)c1nc(C(=O)NCC(O)(C(F)(F)F)C(F)(F)F)sc1-c1cnc(NC(C)(C)C)cc1C(F)F` [Example 264, 5-[6-(tert-Butylamino)-4-(difluoromethyl)-3-pyridyl]-4-[(2S)-2-methylpyrrolidine-1-carbonyl]-N-[3,3,3-trifluoro-2-hydroxy-2-(trifluoromethyl)propyl]thiazole-2-carboxamide], the Kd in test [1] was 4.9 nM. Also, the inhibition at 3 µM at full-length human RORγt was 112%. The IC50 on full-length human RORγt (setting [3]) came to 0.028 µM.

As for `C[C@H]1CC(F)(F)CN1C(=O)c1nc(C(=O)N[C@H]2C[C@H](O)C2)sc1-c1cnc(N[C@@H](C2CC2)C(F)(F)F)cc1C(F)F` [Example 315, 5-(6-(((S)-1-Cyclopropyl-2,2,2-trifluoroethyl)amino)-4-(difluoromethyl)pyridin-3-yl)-4-((S)-4,4-difluoro-2-methylpyrrolidine-1-carbonyl)-N-((1r,3S)-3-hydroxycyclobutyl)thiazole-2-carboxamide], in test [1], the Kd was 2.9 nM. In addition, on full-length human RORγt, the inhibition at 1 µM came out at 99%. Moreover, at full-length human RORγt (setting [3]), the IC50 turned out to be 0.015 µM.

For the compound `C[C@H]1CCCN1C(=O)c1nc(C(=O)N2CC[C@@](C)(O)C2)sc1-c1cnc(NC(C)(C)C)cc1C(F)(F)F` (relative stereo) [Example 366, (5-(6-(tert-Butylamino)-4-(trifluoromethyl)pyridin-3-yl)-2-((R*)-3-hydroxy-3-methylpyrrolidine-1-carbonyl)thiazol-4-yl)-((S)-2-methylpyrrolidin-1-yl)methanone], in test [1], the dissociation constant Kd was determined as 10 nM. On full-length human RORγt, the inhibition at 3 µM stood at 97%. The half-maximal inhibitory concentration (IC50) on full-length human RORγt (setting [3]) was 0.063 µM.

Take `CC[C@H](Nc1cc(C(F)F)c(-c2sc(C(=O)N[C@H]3CC[C@@H]3O)nc2C(=O)N2CCC[C@@H]2C)cn1)C(F)(F)F` (relative stereo) [Example 377, 5-(4-(Difluoromethyl)-6-(((S)-1,1,1-trifluorobutan-2-yl)amino)pyridin-3-yl)-N-((1S*,2S*)-2-hydroxycyclobutyl)-4-((S)-2-methylpyrrolidine-1-carbonyl)thiazole-2-carboxamide]: the dissociation constant (Kd) in test [1] turned out to be 3.4 nM. The inhibition at 3 µM on full-length human RORγt stood at 91%. For the same compound, the IC50 on full-length human RORγt (setting [3]) was 0.032 µM.

As for `CNC(=O)c1nc(C(=O)N2CCC[C@@H]2C)c(-c2cnc(NC(C)(C)C)cc2C(F)(F)F)s1` [Example 307, (S)-5-(6-(tert-Butylamino)-4-(trifluoromethyl)pyridin-3-yl)-N-methyl-4-(2-methylpyrrolidine-1-carbonyl)thiazole-2-carboxamide], the equilibrium dissociation constant (Kd) in test [1] was 43 nM. Besides, the inhibition at 3 µM at full-length human RORγt stood at 102%. Besides, the IC50 at full-length human RORγt (setting [3]) came to 0.15 µM.

Regarding `CC[C@H](Nc1cc(C(F)F)c(-c2sc(C(=O)N[C@@H]3CC[C@H]3O)nc2C(=O)N2C3CCC2CC3)cn1)C(F)(F)F` (relative stereo) [Example 405, 4-((1s,4s)-7-Azabicyclo[2.2.1]heptane-7-carbonyl)-5-(4-(difluoromethyl)-6-(((S)-1,1,1-trifluorobutan-2-yl)amino)pyridin-3-yl)-N-((1R*,2R*)-2-hydroxycyclobutyl)thiazole-2-carboxamide], in test [1], the Kd is 2 nM. For the same compound, the inhibition at 3 µM on full-length human RORγt amounted to 95%. In addition, the concentration for half-maximal inhibition (IC50) on full-length human RORγt (setting [3]) worked out at 0.11 µM.

`CC[C@H](Nc1cc(C(F)F)c(-c2sc(C(=O)N[C@H](C)C(C)(C)O)nc2C(=O)N2CCC[C@@H]2C)cn1)C(F)(F)F` [Example 267, 5-[4-(Difluoromethyl)-6-[[(1S)-1-(trifluoromethyl)propyl]amino]-3-pyridyl]-N-[(1R)-2-hydroxy-1,2-dimethyl-propyl]-4-[(2S)-2-methylpyrrolidine-1-carbonyl]thiazole-2-carboxamide]: the Kd in test [1] was 3.3 nM. Besides, the inhibition at 3 µM at full-length human RORγt worked out at 102%. In addition, the IC50 on full-length human RORγt (setting [3]) is 0.047 µM.

Consider `C[C@H](Nc1cc(C(F)F)c(-c2sc(C(=O)NCC(C)(C)O)nc2C(=O)N2C3CCC2CC3)cn1)C1CC1` [Example 55, 4-((1s,4s)-7-Azabicyclo[2.2.1]heptane-7-carbonyl)-5-(6-(((S)-1-cyclopropylethyl)amino)-4-(difluoromethyl)pyridin-3-yl)-N-(2-hydroxy-2-methylpropyl)thiazole-2-carboxamide], for which, in test [1], the Kd was 7.9 nM. In addition, on full-length human RORγt (Conditions B or C), the “RORγt … % inhibition (value marked *)” value was 92* %. The IC50 at full-length human RORγt (setting [2]) was 0.031 µM.

Regarding `O=C(N[C@@H]1COC[C@H]1O)c1nc(C(=O)N2C3CCC2CC3)c(-c2cnc(N[C@@H](C3CC3)C(F)(F)F)cc2C(F)F)s1` [Example 442, 4-((1s,4s)-7-Azabicyclo[2.2.1]heptane-7-carbonyl)-5-[6-[[(1S)-1-cyclopropyl-2,2,2-trifluoro-ethyl]amino]-4-(difluoromethyl)-3-pyridyl]-N-[(3R,4S)-4-hydroxytetrahydrofuran-3-yl]thiazole-2-carboxamide], the Kd in test [1] was 1.6 nM. On full-length human RORγt (RORγt (FL) Reporter Assay B or C, IC50), this compound registered an IC50 of 0.32 µM. Also, the inhibition at 1 µM at full-length human RORγt is 96%.

For the compound `CC[C@H](Nc1cc(C(F)F)c(-c2sc(C(=O)NC3CN(S(C)(=O)=O)C3)nc2C(=O)N2CCC[C@@H]2C)cn1)C(F)(F)F` [Example 383, 5-[4-(Difluoromethyl)-6-[[(1S)-1-(trifluoromethyl)propyl]amino]-3-pyridyl]-4-[(2S)-2-methylpyrrolidine-1-carbonyl]-N-(1-methylsulfonylazetidin-3-yl)thiazole-2-carboxamide], the dissociation constant Kd in test [1] was 2.6 nM. Besides, on full-length human RORγt, the inhibition at 3 µM was determined as 108%. The IC50 at full-length human RORγt (setting [3]) is 0.092 µM.

For the compound `C[C@H](Nc1cc(C(F)F)c(-c2sc(C(=O)NCC(C)(C)O)nc2C(=O)N2C3CCC2CC3)cn1)C(F)(F)F` [Example 136], the dissociation constant Kd in test [1] came out at 16 nM. For the same compound, the “RORγt … % inhibition (value marked *)” value on full-length human RORγt (Conditions B or C) is on record as 109* %. Further, the concentration for half-maximal inhibition (IC50) on full-length human RORγt (setting [2]) stood at 0.79 µM.
